Experimental data from patent US6090820A, “Spirocyclic and bicyclic diazinyl and carbazinyl oxazolidinones” (Pharmacia & Upjohn Company, priority 1997, dated 2000).
Converted amounts (≈) assume the structure as drawn. Where two headings read alike, the source gives them in different places.

Legend:
S. pneumoniae UC® 9912 = assay: MIC by agar dilution, S. pneumoniae UC 9912; format: cell-based; settings: Streptococcus pneumoniae
Source text: (§1) The oxazolidinone antibacterial agents of this invention have useful activity against a variety of organisms. The in vitro activity of compounds of this invention can be assessed by standard testing procedures such as the determination of minimum inhibitory concentration (MIC) by agar dilution as described in "Methods for Dilution Antimicrobial Susceptibility Tests for Bacteria That Grow Aerobically" (MFT) published January 1983 by the National Committee for Clinical Laboratory Standards, 771 East Lancaster Avenue, Villanova, Pa. 19084, USA. The activity of selected compounds of this invention against Staphylococcus aureus and Streptococcus pneumoniae are shown in Table 1.

S. aureus UC ® 9213 = assay: MIC by agar dilution, S. aureus UC 9213; format: cell-based; settings: Staphylococcus aureus
Source text: as §1

[1] = UC9912, S. pneumoniae UC 9912, in vitro, agar dilution, read-out: Minimum Inhibitory Concentration
[2] = UC9213, S. aureus UC 9213, in vitro, agar dilution, read-out: Minimum Inhibitory Concentration

Compound | MIC (S. pneumoniae UC® 9912; [1]) [µg/mL] | MIC (S. aureus UC ® 9213; [2]) [µg/mL] | MIC (S. pneumoniae UC® 9912; UC9912, read-out: Minimum Inhibitory Concentration) [µg/mL] | MIC (S. aureus UC ® 9213; UC9213, read-out: Minimum Inhibitory Concentration) [µg/mL]
CC(=O)NC[C@H]1CN(c2ccc(N3C[C@H]4CN(C(=O)COCc5ccccc5)C[C@H]4C3)c(F)c2)C(=O)O1 [Example 2, (S)-N-[[3-[3-fluoro4-[cis-3-(benzyloxyacetyl)-3,7-diazabicyclo[3.3.0]octan-7-yl]phenyl]-2-oxo-5-oxazolidinyl]methyl]acetamide] | 1 (≈ 1.96 µM) | 8 (≈ 15.7 µM) | – | –
CC(=O)NC[C@H]1CN(c2ccc(N3C[C@H]4CN(C(=O)CO)C[C@H]4C3)c(F)c2)C(=O)O1 [Example 3, (S)-N-[[3-[3-fluoro4-[cis-3-(hydroxyacetyl)-3,7-diazabicyclo[3.3.0]octan-7-yl]phenyl]-2-oxo-5-oxazolidinyl]methyl]acetamide] | < 0.5 | 4 (≈ 9.51 µM) | – | –
CC(=O)NC[C@H]1CN(c2ccc(N3C[C@H]4CN(C(=O)OCc5ccccc5)C[C@H]4C3)c(F)c2)C(=O)O1 [Example 1, (S)-N-[[3-[4-[cis-3-(carbobenzyloxy)-3,7-diazabicyclo[3.3.0]octan-7-yl]-3-fluorophenyl]-2-oxo-5-oxazolidinyl]methyl]acetamide] | 2 (≈ 4.03 µM) | 4 (≈ 8.06 µM) | – | –
CN[C@H](CC(C)C)C(=O)N[C@H]1C(=O)N[C@@H](CC(N)=O)C(=O)N[C@H]2C(=O)N[C@H]3C(=O)N[C@H](C(=O)N[C@H](C(=O)O)c4cc(O)cc(O)c4-c4cc3ccc4O)[C@H](O)c3ccc(c(Cl)c3)Oc3cc2cc(c3O[C@@H]2O[C@H](CO)[C@@H](O)[C@H](O)[C@H]2O[C@H]2C[C@](C)(N)[C@H](O)[C@H](C)O2)Oc2ccc(cc2Cl)[C@H]1O [vancomycin, reference compound] | – | – | 0.5 (≈ 0.345 µM) | 1 (≈ 0.69 µM)
